# Data taken from patent US8466188B2, “Use of spiro-oxindole compounds as therapeutic agents” (Xenon Pharmaceuticals Inc., priority 2006, dated 2013).
row,melting point,SMILES
1,65 to 75 °C,"CC(C)(C)OC(=O)N1CCC(CN2C(=O)C3(COc4cc5c(cc43)C(C)(C)CO5)c3ccccc32)CC1 (centres unmarked) [Example 10.18, tert-butyl 4-[(5,5-dimethyl-2′-oxo-5,6-dihydrospiro[benzo[1,2-b:5,4-b′]difuran-3,3′-indol]-1′(2′H)-yl)methyl]piperidine-1-carboxylate]"
2,155 to 160 °C,"CC1(C)COc2cc3c(cc21)C1(CO3)C(=O)N(Cc2ccc(C(F)(F)F)o2)c2ccccc21 (centres unmarked) [Example 10.21, 5,5-dimethyl-1′-{[5-(trifluoromethyl)-2-furyl]methyl}-5,6-dihydrospiro[benzo[1,2-b:5,4-b′]difuran-3,3′-indol]-2′(1′H)-one]"
3,174 to 175 °C,"O=C1N(Cc2ccc(F)cc2Cl)c2ccccc2C12COc1cc3c(cc12)OCO3 (centres unmarked) [Example 10.30, 1′-(2-chloro-4-fluorobenzyl)spiro[furo[2,3-f][1,3]benzodioxole-7,3′-indol]-2′(1′H)-one]"
4,111 to 113 °C,"O=C1N(CCCC2CC2)c2ccccc2C12COc1cc3c(cc12)OCO3 (centres unmarked) [Example 10.32, 1′-(3-cyclopropylpropyl)spiro[furo[2,3-f][1,3]benzodioxole-7,3′-indol]-2′(1′H)-one]"
5,119 to 120 °C,"CCCCN1C(=O)C2(COc3cc4c(cc32)OCO4)c2ccccc21 (centres unmarked) [Example 10.33, 1′-butylspiro[furo[2,3-f][1,3]benzodioxole-7,3′-indol]-2′(1′H)-one]"
6,159 to 161 °C,"Cc1oncc1CN1C(=O)C2(COc3cc4c(cc32)OCO4)c2ccccc21 (centres unmarked) [Example 10.34, 1′-[(5-methylisoxazol-4-yl)methyl]spiro[furo[2,3-f][1,3]benzodioxole-7,3′indol]-2′(1′H)-one]"
7,142 to 144 °C,"O=C1N(CC2CCOCC2)c2ccccc2C12COc1cc3c(cc12)OCO3 (centres unmarked) [Example 10.35, 1′-(tetrahydro-2H-pyran-4-ylmethyl)spiro[furo[2,3-f][1,3]benzodioxole-7,3′-indol]-2′(1′H)-one]"
8,130 to 135 °C,"O=C1N(Cc2ccccc2OC(F)(F)F)c2ccccc2C12COc1cc3c(cc12)OCO3 (centres unmarked) [Example 10.36, 1′[2-(trifluoromethoxy)benzyl]spiro[furo[2,3-f][1,3]benzodioxole-7,3′-indol]-2′(1′H)-one]"
9,88 to 91 °C,"O=C1N(Cc2cccc(OC(F)(F)F)c2)c2ccccc2C12COc1cc3c(cc12)OCO3 (centres unmarked) [Example 10.37, 1′[3-(trifluoromethoxy)benzyl]spiro[furo[2,3-f][1,3]benzodioxole-7,3′-indol]-2′(1′H)-one]"
10,99 to 101 °C,"O=C1N(Cc2ccc(OC(F)(F)F)cc2)c2ccccc2C12COc1cc3c(cc12)OCO3 (centres unmarked) [Example 10.38, 1′[4-(trifluoromethoxy)benzyl]spiro[furo[2,3-f][1,3]benzodioxole-7,3′-indol]-2′(1′H)-one]"
11,142 to 144 °C,"CN1C(=O)C2(COc3cc4c(cc32)OCO4)c2ccccc21 (centres unmarked) [Example 10.39, 1′-methylspiro[furo[2,3-f][1,3]benzodioxole-7,3′-indol]-2′(1′H)-one]"
12,158 to 160 °C,"CCCN1C(=O)C2(COc3cc4c(cc32)OCO4)c2ccccc21 (centres unmarked) [Example 10.40, 1′-Propylspiro[furo[2,3-f][1,3]benzodioxole-7,3′-indol]-2′(1′H)-one]"
13,96 to 98 °C,"CC(C)(C)OC(=O)N1CCC(CN2C(=O)C3(COc4cc5c(cc43)CCO5)c3ccccc32)CC1 (centres unmarked) [Example 10.43, tert-butyl 4-[(2′-oxo-5,6-dihydrospiro[benzo[1,2-b:5,4-b′]difuran-3,3′-indol]-1′(2′H)-yl)methyl]piperidine 1-carboxylate]"
14,120 to 121 °C,"COc1ccc(CN2C(=O)C3(COc4cc5c(cc43)CCO5)c3ccccc32)cc1 (centres unmarked) [Example 10.46, 1′-(4-methoxybenzyl)-5,6-dihydrospiro[benzo[1,2-b:5,4-b′]difuran-3,3′-indol]-2′(1′H)-one]"
15,182 to 184 °C,"O=C1N(Cc2ccc(C(F)(F)F)o2)c2cccc(Br)c2C12COc1cc3c(cc12)CCO3 (centres unmarked) [Example 10.48, 4′-bromo-1′-{[5-(trifluoromethyl)-2-furyl]methyl}-5,6-dihydrospiro[benzo[1,2-b:5,4-b′]difuran-3,3′-indol]-2′(1′H)-one]"
16,165 to 167 °C,"Cc1noc(C)c1CN1C(=O)C2(COc3cc4c(cc32)OCO4)c2ccccc21 (centres unmarked) [Example 10.51, 1′-[(3,5-dimethylisoxazol-4-yl)methyl]spiro[furo[2,3-f][1,3]benzodioxole-7,3′-indol]-2′(1′H)-one]"
17,110 to 112 °C,"O=C1N(Cc2ccco2)c2ccccc2C12COc1cc3c(cc12)OCO3 (centres unmarked) [Example 10.52, 1′-(2-furylmethyl)spiro[furo[2,3-f][1,3]benzodioxole-7,3′-indol]-2′(1′H)-one]"
18,205 to 207 °C,"O=C1N(Cc2ccc(-c3cccc(Cl)c3)o2)c2ccccc2C12COc1cc3c(cc12)OCO3 (centres unmarked) [Example 10.56, 1′-{[5-(3-chlorophenyl)-2-furyl]methyl}spiro[furo[2,3-f][1,3]benzodioxole-7,3′-indol]-2′(1′H)-one]"
19,144 to 146 °C,"O=C1N(CCCCl)c2ccccc2C12COc1cc3c(cc12)OCO3 (centres unmarked) [Example 10.57, 1′-(3-chloropropyl)spiro[furo[2,3-f][1,3]benzodioxole-7,3′-indol]-2′(1′H)-one]"

# Further lines, the compound ahead of its results:
row,SMILES,melting point
1,"O=C(CN1C(=O)C2(COc3cc(F)c(F)cc32)c2ccccc21)Nc1ccccc1F (centres unmarked) [Example 3.9, 2-(5,6-difluoro-2′-oxospiro[1-benzofuran-3,3′-indol]-1′(2′H)-yl)-N-(2-fluorophenyl)acetamide]",97 to 100 °C
2,"O=C(CN1C(=O)C2(COc3ccc(Br)cc32)c2ccccc21)Nc1ccccc1F (centres unmarked) [Example 3.10, 2-(5-bromo-2′-oxospiro[1-benzofuran-3,3′-indol]-1′(2′H)-yl)-N-(2-fluorophenyl)acetamide]",100 to 103 °C
3,"O=C(CN1C(=O)C2(COc3cc4c(cc32)CCO4)c2c(Br)cccc21)Nc1ccccc1F (centres unmarked) [Example 3.12, 2-(4′-bromo-2′-oxo-5,6-dihydrospiro[benzo[1,2-b:5,4-b′]difuran-3,3′-indol]-1′(2′H)-yl)-N-(2-fluorophenyl)acetamide]",245 to 246 °C
4,"O=C(CN1C(=O)C2(COc3cc4c(cc32)CCO4)c2ccccc21)Nc1ccccc1F (centres unmarked) [Example 3.13, N-(2-fluorophenyl)-2-(2′-oxo-5,6-dihydrospiro[benzo[1,2-b:5,4-b′]difuran-3,3′-indol]-1′(2′H)-yl)acetamide]",210 to 212 °C
5,"Cc1ccc(F)c2c1N(CC(=O)Nc1ccccc1F)C(=O)C21COc2cc3c(cc21)CCO3 (centres unmarked) [Example 3.14, 2-(4′-fluoro-7′-methyl-2′-oxo-5,6-dihydrospiro[benzo[1,2-b:5,4-b′]difuran-3,3′-indol]-1′(2′H)-yl)-N-(2-fluorophenyl)acetamide]",250 to 255 °C
6,"CC1(C)Cc2cc3c(cc2O1)OCC31C(=O)N(CC(=O)Nc2ccccc2F)c2cccc(-c3cncnc3)c21 (centres unmarked) [Example 4.3, 2-(6,6-dimethyl-2′-oxo-4′-pyrimidin-5-yl-5,6-dihydrospiro[benzo[1,2-b:5,4-b′]difuran-3,3′-indol]-1′(2′H)-yl)-N-(2-fluorophenyl)acetamide]",> 250 °C
7,"O=C1Nc2cccc(-c3ccoc3)c2C12COc1cc3c(cc12)OCO3 (centres unmarked) [Example 4.4, 4′-(3-furyl)spiro[furo[2,3-f][1,3]benzodioxole-7,3′-indol]-2′(1′H)-one]",270 to 272 °C
8,"O=C1Nc2cccc(-c3cccc4c3oc3ccccc34)c2C12COc1cc3c(cc12)OCO3 (centres unmarked) [Example 4.5, 4′-dibenzo[b,d]furan-4-ylspiro[furo[2,3-f][1,3]benzodioxole-7,3′-indol]-2′(1′H)-one]",> 230 °C
9,"COc1ccc(-c2cccc3c2C2(COc4cc5c(cc42)OCO5)C(=O)N3Cc2ccc(C(F)(F)F)o2)cn1 (centres unmarked) [Example 4.6, 4′-(6-methoxypyridin-3-yl)-1′-{[5-(trifluoromethyl)-2-furyl]methyl}spiro[furo[2,3-f][1,3]benzodioxole-7,3′-indol]-2′(1′H)-one]",174 to 176 °C
10,"CN(C)c1ccc(-c2cccc3c2C2(COc4cc5c(cc42)OCO5)C(=O)N3Cc2ccc(C(F)(F)F)o2)cn1 (centres unmarked) [Example 4.7, 4′-[6-(dimethylamino)pyridin-3-yl]-1′-{[5-(trifluoromethyl)-2-furyl]methyl}spiro[furo[2,3-f][1,3]benzodioxole-7,3′-indol]-2′(1′H)-one]",174 to 176 °C
11,"O=C1Nc2cccc(-c3cncnc3)c2C12COc1cc3c(cc12)OCO3 (centres unmarked) [Example 4.8, 4′-pyrimidin-5-ylspiro[furo[2,3-f][1,3]benzodioxole-7,3′-indol]-2′(1′H)-one]",185 to 187 °C
12,"O=C1N(Cc2ccccn2)c2cccc(-c3ccoc3)c2C12COc1cc3c(cc12)CCO3 (centres unmarked) [Example 4.9, 4′-(3-furyl)-1′-(pyridin-2-ylmethyl)-5,6-dihydrospiro[benzo[1,2-b:5,4-b′]difuran-3,3′-indol]-2′(1′H)-one]",195 to 197 °C
13,"O=C1N(Cc2ccccn2)c2cccc(-c3cccnc3)c2C12COc1cc3c(cc12)CCO3 (centres unmarked) [Example 4.11, 4′-pyridin-3-yl-1′-(pyridin-2-ylmethyl)-5,6-dihydrospiro[benzo[1,2-b:5,4-b′]difuran-3,3′-indol]-2′(1′H)-one]",> 200 °C
14,"O=C1N(Cc2ccc(C(F)(F)F)o2)c2cccc(-c3ccoc3)c2C12COc1cc3c(cc12)CCO3 (centres unmarked) [Example 4.12, 4′-(3-furyl)-1′-{[5-(trifluoromethyl)-2-furyl]methyl}-5,6-dihydrospiro[benzo[1,2-b:5,4-b′]difuran-3,3′-indol]-2′(1′H)-one]",167 to 169 °C
15,"O=C1N(Cc2ccc(C(F)(F)F)o2)c2cccc(-c3cncnc3)c2C12COc1cc3c(cc12)CCO3 (centres unmarked) [Example 4.14, 4′-pyrimidin-5-yl-1′-{[5-(trifluoromethyl)-2-furyl]methyl}-5,6-dihydrospiro[benzo[1,2-b:5,4-b′]difuran-3,3′-indol]-2′(1′H)-one]",263 to 266 °C
16,"O=C(CN1C(=O)C2(COc3cc4c(cc32)CCO4)c2c(-c3cncnc3)cccc21)Nc1ccccc1F (centres unmarked) [Example 4.20, N-(2-fluorophenyl)-2-(2′-oxo-4′-pyrimidin-5-yl-5,6-dihydrospiro[benzo[1,2-b:5,4-b′]difuran-3,3′-indol]-1′(2′H)-yl)acetamide]",229 to 230 °C
